Like-named read-outs stand apart in the source and are kept apart here.
Experiments:
[1] = target: T1, GST-tagged human ROCK1 catalytic domain 1-477 (Homo sapiens, UniProt Q13464); assay: Isolated Enzyme Assay, ROCK1 (LANCE Ultra ULight-CREBtide FRET); assay type: biochemical; conditions: 30 μM highest concentration tested, read-out: Results from Isolated Enzyme Assay IC50 (μM) ROCK1
T1 construct: human ROCK1 catalytic domain 1-477 from Carna Biosciences (cat #01-109); purchased Carna Biosciences 01-109; host or cells: baculovirus expression system
T1 sequence (Q13464 1-477): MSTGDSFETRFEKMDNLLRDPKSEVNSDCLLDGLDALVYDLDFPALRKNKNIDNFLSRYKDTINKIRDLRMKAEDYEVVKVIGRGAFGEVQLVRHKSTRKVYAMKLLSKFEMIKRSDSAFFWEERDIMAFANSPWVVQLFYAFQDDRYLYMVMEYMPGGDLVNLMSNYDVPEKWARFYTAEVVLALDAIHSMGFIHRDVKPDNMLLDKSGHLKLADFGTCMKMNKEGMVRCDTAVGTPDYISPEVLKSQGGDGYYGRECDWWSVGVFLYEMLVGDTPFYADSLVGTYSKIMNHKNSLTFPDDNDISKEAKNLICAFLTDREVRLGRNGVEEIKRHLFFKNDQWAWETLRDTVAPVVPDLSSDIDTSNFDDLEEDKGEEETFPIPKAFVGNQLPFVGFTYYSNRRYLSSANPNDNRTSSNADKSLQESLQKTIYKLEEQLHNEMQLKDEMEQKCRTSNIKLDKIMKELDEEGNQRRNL
Protocol: (§1) Exemplary compounds were tested for ability to inhibit Rho-associated protein kinase isoform 1 (ROCK1) and Rho-associated protein kinase isoform 2 (ROCK2). Assay procedures and results are described below.
(§2) Part I—Procedure for Determining ROCK Inhibition Ability of Test Compounds Using an Isolated Enzyme Assay
(§3) Protein constructs were purified from a baculovirus expression system. The peptide substrate was fluorescent LANCE® Ultra ULight-CREBtide: […] (PerkinElmer, # TRF0107-D). Kinase reactions were carried out in a 10 μL volume in 384-well plates: 50 nM ULight-CREBtide substrate, 2 nM constitutively active ROCK1 or ROCK2 kinase, and test compound in DMSO (or DMSO only for controls) were diluted into assay buffer containing 50 mM Tris-HCl (pH=7.5), 10 mM MgCl2, 1 mM EGTA, 0.01% Tween-20, and 2 mM DTT such that the final concentration of DMSO was 0.5%. After a 90 minute incubation at room temperature on a shaker table, the kinase reaction was stopped by addition of 10 mM EDTA, and phosphorylation of the substrate was detected by adding 1 nM LANCE® Ultra Europium-anti-phospho-CREB (ser133) antibody (PerkinElmer, # TRF0200-D) and incubating for 60 minutes on a shaker at room temperature. The fluorescence resonance energy transfer (FRET) signals were read and analyzed on an Envision™ 2103 Multilabel Reader (Perkin Elmer). The concentration of test compound required to inhibit substrate phosphorylation by 50% (the IC50) was calculated by non-linear regression using GraphPad PRIZM.

ROCK1 = target: T2, ROCK1 (Homo sapiens, UniProt Q13464); assay: Cell-Based Assay, ROCK1 (HAP1 knockout cells, phospho-MYPT1 Thr853 ELISA); conditions: read-out: Results from Cell-Based Assay IC50 (μM) ROCK1
T2 construct: endogenous in cells; host or cells: HAP1 knockout cells
T2 sequence (Q13464 whole entry): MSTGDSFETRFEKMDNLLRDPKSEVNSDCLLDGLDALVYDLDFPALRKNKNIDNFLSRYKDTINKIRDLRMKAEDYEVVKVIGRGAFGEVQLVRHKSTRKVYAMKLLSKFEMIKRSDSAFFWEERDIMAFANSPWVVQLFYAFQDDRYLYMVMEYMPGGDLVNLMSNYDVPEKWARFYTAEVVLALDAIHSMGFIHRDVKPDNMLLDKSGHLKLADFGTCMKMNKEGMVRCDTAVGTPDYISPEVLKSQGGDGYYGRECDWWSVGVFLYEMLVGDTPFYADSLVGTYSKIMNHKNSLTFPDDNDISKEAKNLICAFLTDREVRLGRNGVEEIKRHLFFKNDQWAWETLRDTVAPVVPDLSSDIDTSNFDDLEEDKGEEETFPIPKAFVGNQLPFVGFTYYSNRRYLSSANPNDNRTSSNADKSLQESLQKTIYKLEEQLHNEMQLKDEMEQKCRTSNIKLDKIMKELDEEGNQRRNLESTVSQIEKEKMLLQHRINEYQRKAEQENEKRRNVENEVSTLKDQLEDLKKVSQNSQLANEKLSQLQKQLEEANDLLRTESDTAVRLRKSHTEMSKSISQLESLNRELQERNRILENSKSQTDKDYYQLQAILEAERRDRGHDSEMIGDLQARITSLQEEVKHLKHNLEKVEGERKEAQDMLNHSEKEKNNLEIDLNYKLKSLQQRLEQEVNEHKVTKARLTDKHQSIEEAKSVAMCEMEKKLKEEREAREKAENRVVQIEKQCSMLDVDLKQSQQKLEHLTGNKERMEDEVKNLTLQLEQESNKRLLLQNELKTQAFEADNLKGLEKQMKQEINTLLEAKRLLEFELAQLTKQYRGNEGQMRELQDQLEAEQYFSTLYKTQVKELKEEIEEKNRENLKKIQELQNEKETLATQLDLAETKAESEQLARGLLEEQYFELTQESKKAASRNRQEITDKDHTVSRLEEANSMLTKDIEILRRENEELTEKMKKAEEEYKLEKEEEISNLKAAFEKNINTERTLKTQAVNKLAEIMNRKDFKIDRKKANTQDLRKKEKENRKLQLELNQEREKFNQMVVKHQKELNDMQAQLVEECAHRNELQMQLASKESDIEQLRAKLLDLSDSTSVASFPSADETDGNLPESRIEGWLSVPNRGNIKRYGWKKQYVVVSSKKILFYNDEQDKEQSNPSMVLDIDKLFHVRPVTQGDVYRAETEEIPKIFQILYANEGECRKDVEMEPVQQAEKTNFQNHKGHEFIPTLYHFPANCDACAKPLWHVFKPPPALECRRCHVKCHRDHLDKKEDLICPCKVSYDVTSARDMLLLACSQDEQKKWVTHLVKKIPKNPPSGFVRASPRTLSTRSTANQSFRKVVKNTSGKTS
Protocol: (§4) Part II—Procedure for Determining ROCK Inhibition Ability of Test Compounds Using a Cell-Base Assay
(§5) The Cell-Based Assay for determining ROCK inhibition ability of test compounds utilized a genetically modified HAP1 cell line engineered to eliminate expression of either ROCK1 or ROCK2. In the procedure, HAP1 knockout cells are grown in Iscove's Modified Dulbecco's Medium that is additionally supplemented with 10% fetal bovine and 1x antibiotic-antimycotic mixture. Cells are plated in 96 well tissue culture plates at 1×10^5 cells/well (100 μL, of cells at 1×10^6/mL). Test compounds are solubilized in DMSO and diluted into the same media used to grow the cells. A 100 μL, aliquot of each compound dilution in media is added to each well containing the HAP1 cells and incubated at 37° C. for 30 minutes. Following compound incubation, the cells are pelleted by centrifugation at 1800 rpm for 5 minutes at 4° C. Media is removed from the cell pellet and the cells lysed and de-salted. An 80 μL, aliquot of each cell lysate is added to a single well of a 96-well high binding ELISA plate which has been pre-coated with a MYPT1 capture antibody and incubated at 4° C. overnight. The following day the ELISA plate is washed 4× with 0.05% Tween-20 in PBS. After washing, an anti-phospho-MYPT1 (Thr853) antibody is added and allowed to bind for 1 hour at room temperature. The wash step is repeated, and then an anti-rabbit HRP detection antibody is added and allowed to incubate at room temperature for 1 hour. The wash step is then repeated and 100 μL/well 1-Step™ Ultra TMB substrate is added to the ELISA plate and allowed to develop for approximately 5 minutes. The reaction is stopped by addition of H2SO4. Absorbance is read at 450 OD. Data is analyzed using GraphPad Prism software to calculate the 50% inhibitory concentration of test compound (IC50).

ROCK2 = target: T3, ROCK2 (Homo sapiens, UniProt O75116); assay: Cell-Based Assay, ROCK2 (HAP1 knockout cells, phospho-MYPT1 Thr853 ELISA); conditions: read-out: Results from Cell-Based Assay IC50 (μM) ROCK2
T3 construct: endogenous in cells; host or cells: HAP1 knockout cells
T3 sequence (O75116 whole entry): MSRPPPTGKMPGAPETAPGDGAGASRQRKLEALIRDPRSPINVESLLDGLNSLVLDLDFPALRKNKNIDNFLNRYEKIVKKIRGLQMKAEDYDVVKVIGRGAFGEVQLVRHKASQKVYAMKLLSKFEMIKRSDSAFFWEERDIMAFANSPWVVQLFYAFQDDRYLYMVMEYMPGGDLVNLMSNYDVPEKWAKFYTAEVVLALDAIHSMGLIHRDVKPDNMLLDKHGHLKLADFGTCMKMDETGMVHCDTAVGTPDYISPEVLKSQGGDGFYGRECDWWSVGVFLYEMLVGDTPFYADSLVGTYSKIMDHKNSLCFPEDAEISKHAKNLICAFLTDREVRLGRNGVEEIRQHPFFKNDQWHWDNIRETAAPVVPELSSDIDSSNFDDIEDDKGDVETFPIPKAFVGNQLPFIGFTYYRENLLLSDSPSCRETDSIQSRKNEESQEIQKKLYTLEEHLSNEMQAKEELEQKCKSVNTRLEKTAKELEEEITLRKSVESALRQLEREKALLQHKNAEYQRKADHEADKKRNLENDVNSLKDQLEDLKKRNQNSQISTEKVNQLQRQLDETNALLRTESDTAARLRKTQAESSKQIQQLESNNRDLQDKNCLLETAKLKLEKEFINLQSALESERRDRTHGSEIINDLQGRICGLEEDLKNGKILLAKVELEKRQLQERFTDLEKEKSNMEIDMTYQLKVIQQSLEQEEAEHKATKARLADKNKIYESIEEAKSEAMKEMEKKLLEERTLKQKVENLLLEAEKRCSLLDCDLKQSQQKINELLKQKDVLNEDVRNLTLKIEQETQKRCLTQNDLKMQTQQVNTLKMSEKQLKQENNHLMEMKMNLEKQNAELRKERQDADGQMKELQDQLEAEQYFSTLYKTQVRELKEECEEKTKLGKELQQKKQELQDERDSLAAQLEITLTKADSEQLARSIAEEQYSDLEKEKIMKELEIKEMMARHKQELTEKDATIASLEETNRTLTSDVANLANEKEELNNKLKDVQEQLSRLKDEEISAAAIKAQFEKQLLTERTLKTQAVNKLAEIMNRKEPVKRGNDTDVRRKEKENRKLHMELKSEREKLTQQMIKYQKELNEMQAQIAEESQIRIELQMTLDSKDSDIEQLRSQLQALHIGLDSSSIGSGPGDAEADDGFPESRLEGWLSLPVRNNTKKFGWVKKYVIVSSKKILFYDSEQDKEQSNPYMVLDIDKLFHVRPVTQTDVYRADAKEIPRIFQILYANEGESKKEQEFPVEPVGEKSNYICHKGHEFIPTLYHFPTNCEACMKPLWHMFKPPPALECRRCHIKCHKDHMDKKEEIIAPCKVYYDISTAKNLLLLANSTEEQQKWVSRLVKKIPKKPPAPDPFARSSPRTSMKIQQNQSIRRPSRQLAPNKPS
Protocol: as §4, §5

[2] = target: T4, GST-tagged human ROCK2 catalytic domain 1-553 (Homo sapiens, UniProt O75116); assay: Isolated Enzyme Assay, ROCK2 (LANCE Ultra ULight-CREBtide FRET); assay type: biochemical; conditions: 30 μM highest concentration tested, read-out: Results from Isolated Enzyme Assay IC50 (μM) ROCK2
T4 construct: GST-tagged human ROCK2 catalytic domain 1-553 from Carna Biosciences (Cat #01-110); purchased Carna Biosciences 01-110; host or cells: baculovirus expression system
T4 sequence (O75116 1-553): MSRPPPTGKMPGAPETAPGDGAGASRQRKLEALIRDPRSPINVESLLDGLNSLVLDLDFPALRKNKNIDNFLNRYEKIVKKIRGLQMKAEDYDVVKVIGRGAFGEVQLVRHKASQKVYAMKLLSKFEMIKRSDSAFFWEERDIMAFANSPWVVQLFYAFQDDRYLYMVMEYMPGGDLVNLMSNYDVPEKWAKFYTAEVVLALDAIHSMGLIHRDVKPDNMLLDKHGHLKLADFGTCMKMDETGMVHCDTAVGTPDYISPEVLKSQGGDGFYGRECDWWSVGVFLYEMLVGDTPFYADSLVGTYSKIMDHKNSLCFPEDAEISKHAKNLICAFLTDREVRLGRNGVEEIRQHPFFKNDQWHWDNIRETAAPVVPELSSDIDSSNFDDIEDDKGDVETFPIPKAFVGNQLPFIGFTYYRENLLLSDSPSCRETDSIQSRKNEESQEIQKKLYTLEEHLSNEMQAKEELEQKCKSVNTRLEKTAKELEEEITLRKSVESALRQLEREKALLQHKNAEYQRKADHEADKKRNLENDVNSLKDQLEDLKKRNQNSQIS
Protocol: as §1, §2, §3

[3] = phospho-MYPT1, 30 μM highest concentration tested

| SMILES | IC50 ([1]; isolated enzyme) | IC50 (ROCK1; [3]) | IC50 (ROCK2; [3]) | IC50 ([2]; isolated enzyme) | IC50 ([1]; isolated enzyme assay) | IC50 (ROCK1; numeric bound) | IC50 (ROCK2; class symbols) | IC50 ([2]; isolated enzyme assay) | IC50 (ROCK1; class symbols) | IC50 (ROCK2; numeric bound) |
| --- | --- | --- | --- | --- | --- | --- | --- | --- | --- | --- |
| CCCOC(=O)Nc1cc(-c2nsc(Nc3ccc4[nH]ncc4c3Cl)n2)cn(C)c1=O [IV-5] |  |  |  |  | < 1 µM |  | < 1 µM | < 1 µM | 1 to 15 µM |  |
| COc1ncc(C(=O)Nc2cncc(-c3nsc(Nc4ccc5[nH]ncc5c4Cl)n3)c2)cn1 [IV-8] |  |  |  |  | > 30 µM | > 10 µM |  | < 1 µM |  | > 10 µM |
| CC(C)NC(=O)COc1cccc(-c2nsc(Nc3ccc4[nH]ncc4c3Cl)n2)c1 [IV-9] |  |  |  |  | < 1 µM |  | < 1 µM | < 1 µM | 1 to 15 µM |  |
| CC(C)NC(=O)c1cc(-c2nsc(Nc3ccc4[nH]ncc4c3Cl)n2)ccc1F [IV-14] |  |  |  |  | < 1 µM |  | < 1 µM | < 1 µM | 1 to 15 µM |  |
| Cc1coc(-c2cccc(-c3nsc(Nc4ccc5[nH]ncc5c4F)n3)c2)n1 [IV-15] |  |  |  |  | < 1 µM | > 10 µM | < 1 µM | < 1 µM |  |  |
| Oc1ccn(-c2cccc(-c3nsc(Nc4ccc5[nH]ncc5c4Cl)n3)c2)n1 [IV-17] |  |  |  |  | < 1 µM | > 10 µM | 1 to 15 µM | < 1 µM |  |  |
| CC(C)(O)CNC(=O)c1cc(-c2nsc(Nc3ccc4[nH]ncc4c3Cl)n2)ccc1F [IV-22] |  |  |  |  | < 1 µM |  | < 1 µM | < 1 µM | 1 to 15 µM |  |
| C[C@@H]1CN(c2cccc(-c3nsc(Nc4ccc5[nH]ncc5c4Cl)n3)c2)C(=O)O1 [IV-31] |  |  |  |  | < 1 µM |  | < 1 µM | < 1 µM | 1 to 15 µM |  |
| C[C@H]1CN(c2cccc(-c3nsc(Nc4ccc5[nH]ncc5c4Cl)n3)c2)C(=O)O1 [IV-32] |  |  |  |  | < 1 µM |  | < 1 µM | < 1 µM | 1 to 15 µM |  |
| CC1(C)CN(c2cccc(-c3nsc(Nc4ccc5[nH]ncc5c4Br)n3)c2)C(=O)O1 [IV-35] |  |  |  |  | < 1 µM |  | < 1 µM | < 1 µM | 1 to 15 µM |  |
| CC1COCCN1C(=O)Nc1cc(-c2nsc(Nc3ccc4[nH]ncc4c3Cl)n2)ccn1 (stereo not drawn) [IV-38] |  |  |  |  | < 1 µM |  | < 1 µM | < 1 µM | 1 to 15 µM |  |
| CN1CCC(NC(=O)c2cc(-c3nsc(Nc4ccc5[nH]ncc5c4Cl)n3)ccc2F)CC1 [IV-46] |  |  |  |  | < 1 µM | > 10 µM | < 1 µM | < 1 µM |  |  |
| O=C(NC1CCOCC1)c1cc(-c2nsc(Nc3ccc4[nH]ncc4c3Cl)n2)ccc1F [IV-47] |  |  |  |  | < 1 µM |  | < 1 µM | < 1 µM | 1 to 15 µM |  |
| COc1cccc(C(=O)Nc2cc(-c3nsc(Nc4ccc5[nH]ncc5c4Cl)n3)ccn2)c1 [IV-64] |  |  |  |  | > 30 µM |  | < 1 µM | > 30 µM |  |  |
| Cc1coc(-c2cc(CO)cc(-c3nsc(Nc4ccc5[nH]ncc5c4Cl)n3)c2)n1 [IV-68] |  |  |  |  | < 1 µM |  | < 1 µM | < 1 µM |  |  |
| O=C(Nc1cccc(-c2nsc(Nc3ccc4[nH]ncc4c3Cl)n2)c1)c1nc(O)co1 [IV-79] |  |  |  |  | < 1 µM |  |  | < 1 µM |  | > 10 µM |
| Cc1cn2cccc(-c3nsc(Nc4ccc5[nH]ncc5c4Cl)n3)c2n1 [IV-89] |  |  |  |  | < 1 µM |  |  | < 1 µM |  | > 10 µM |
| Cc1coc(-c2cncc(-c3nsc(Nc4ccc5[nH]ncc5c4Cl)n3)c2)n1 [IV-97] |  |  |  |  | > 30 µM |  |  | > 30 µM |  | > 10 µM |
| COc1cccc(C(=O)Nc2cncc(-c3nsc(Nc4ccc5[nH]ncc5c4Cl)n3)c2)c1 [IV-101] |  |  |  |  | > 30 µM |  |  | > 30 µM |  | > 10 µM |
| Cc1cc(-c2nc(C)co2)cc(-c2nsc(Nc3ccc4[nH]ncc4c3Cl)n2)n1 [IV-105] |  |  |  |  | > 30 µM |  |  | > 30 µM |  | > 10 µM |
| COc1ccc(C(=O)Nc2cc(-c3nsc(Nc4ccc5[nH]ncc5c4Cl)n3)ccn2)cc1 [IV-108] |  |  |  |  | > 30 µM |  | 1 to 15 µM | < 1 µM |  |  |

Continued, values first:

| IC50 ([1]; isolated enzyme) | IC50 (ROCK1; [3]) | IC50 (ROCK2; [3]) | IC50 ([2]; isolated enzyme) | IC50 ([1]; isolated enzyme assay) | IC50 (ROCK1; numeric bound) | IC50 (ROCK2; class symbols) | IC50 ([2]; isolated enzyme assay) | IC50 (ROCK1; class symbols) | IC50 (ROCK2; numeric bound) | SMILES |
| --- | --- | --- | --- | --- | --- | --- | --- | --- | --- | --- |
| < 1 µM | 1 to 15 µM | < 1 µM | < 1 µM |  |  |  |  |  |  | Cn1nccc1C(=O)Nc1cccc(-c2nsc(Nc3ccc4[nH]ncc4c3Cl)n2)c1 [Compound A-3] |
| > 30 µM | 1 to 15 µM | < 1 µM | < 1 µM |  |  |  |  |  |  | Cc1ccncc1C(=O)Nc1cccc(-c2nsc(Nc3ccc4[nH]ncc4c3Cl)n2)c1 [Compound A-4] |
|  |  |  |  | < 1 µM | > 10 µM | < 1 µM | < 1 µM |  |  | CNC(=O)c1cc(-c2nsc(Nc3ccc4[nH]ncc4c3Cl)n2)cn(C)c1=O [IV-2] |
|  |  |  |  | < 1 µM | > 10 µM | < 1 µM | < 1 µM |  |  | Cn1nccc1C(=O)Nc1cc(-c2nsc(Nc3ccc4[nH]ncc4c3Cl)n2)cn(C)c1=O [IV-6] |
|  |  |  |  | > 30 µM | > 10 µM |  | < 1 µM |  | > 10 µM | COc1ncc(C(=O)Nc2cc(-c3nsc(Nc4ccc5[nH]ncc5c4Cl)n3)cn(C)c2=O)cn1 [IV-7] |
|  |  |  |  | > 30 µM | > 10 µM |  | < 1 µM |  | > 10 µM | Cn1ccc(C(=O)Nc2cc(-c3nsc(Nc4ccc5[nH]ncc5c4Cl)n3)cn(C)c2=O)n1 [IV-10] |
|  |  |  |  | < 1 µM | > 10 µM | < 1 µM | < 1 µM |  |  | Cc1cnc(-c2cc(-c3nsc(Nc4ccc5[nH]ncc5c4Cl)n3)cn(C)c2=O)o1 [IV-12] |
|  |  |  |  | < 1 µM | > 10 µM |  | < 1 µM |  | > 10 µM | Cc1cc(NC(=O)c2ccnn2C)cc(-c2nsc(Nc3ccc4[nH]ncc4c3Cl)n2)n1 [IV-13] |
|  |  |  |  | < 1 µM | > 10 µM | < 1 µM | < 1 µM |  |  | Cc1cc(NC(=O)c2cocn2)cc(-c2nsc(Nc3ccc4[nH]ncc4c3Cl)n2)n1 [IV-19] |
|  |  |  |  | < 1 µM | > 10 µM | < 1 µM | < 1 µM |  |  | Cc1cc(NC(=O)c2cn(C)cn2)cc(-c2nsc(Nc3ccc4[nH]ncc4c3Cl)n2)n1 [IV-26] |
|  |  |  |  | > 30 µM | > 10 µM | < 1 µM | > 30 µM |  |  | Cc1cc(C(=O)Nc2cncc(-c3nsc(Nc4ccc5[nH]ncc5c4Cl)n3)c2)n(C)n1 [IV-42] |
|  |  |  |  | 1 to 15 µM |  |  | < 1 µM |  | > 10 µM | Cc1ncc(-c2nsc(Nc3ccc4[nH]ncc4c3Cl)n2)cc1NC(=O)c1ccnn1C [IV-69] |
|  |  |  |  | < 1 µM |  | 1 to 15 µM | < 1 µM |  |  | Cn1ccnc1-c1cccc(-c2nsc(Nc3ccc4[nH]ncc4c3Cl)n2)c1 [IV-88] |
|  |  |  |  | > 30 µM |  |  | > 30 µM |  | > 10 µM | Cc1cnc(-c2cncc(-c3nsc(Nc4ccc5[nH]ncc5c4Cl)n3)c2)o1 [IV-103] |
|  |  |  |  | > 30 µM |  |  | > 30 µM |  | > 10 µM | COc1ncc(-c2nsc(Nc3ccc4[nH]ncc4c3Cl)n2)cc1NC(=O)c1ccnn1C [IV-106] |

Reference: patent publication US10556898B2, “Indazolyl-1,2,4-thiadiazolamines and related compounds for inhibition of Rho-associated protein kinase and the treatment of disease” (Lycera Corporation, priority 2016, dated 2020)
